Measured values as given in US7608587B2, “Exendin 4 polypeptide fragment” (Changzhou Pharmaceutical Factory, priority 2005, dated 2009).

Experiments:
diabetic animal models = experiment: hypoglycemic activity across the diabetic animal models of examples 3-7 (overall statement); type: in vivo; details: assays of examples 3, 4, 5, 6, 7
Excerpt: The effect of hypoglycemic levels of the polypeptide in the present invention is validated with the routine methods in the art, such as the experiments of cell biology, the animal experiments, etc. In embodiments of the present invention, in order to overcome the limitations of the experiments in vitro, preferably employed diabetic animal models to assay the effect of hypoglycemic levels, such as db/db II diabetic mice, Goto-Kokizaki (GK) II type rat, diabetic KK mice, alloxan induced diabetic mice. These animal experiments indicate the Exendin 4 polypeptide fragment represented by formula (I) in the present invention, has a continuous effect of sustaining hypoglycemic activity in vivo and can be used for the diabetes treatment. KK type II diabetic mice (purchased from Shanghai Laboratory Animal Center, Chinese Academy of Sciences, China) with 50 g body weight are subjected to fasting for 2 hours, and are divided into four groups. Two groups are injected with 2 μg Exendin 4, the other two groups are injected with 2 μg Exendin 4 polypeptide fragment presented in the invention. Twenty microliter blood samples are obtained from fasted animals at 0, 0.5, 1, 2, 3, 4, 5 and 6 h time points respectively after administration of the test substance. The sustained hypoglycemic activity is analyzed by using the blood sugar assay kit (purchased from Shanghai Institute of Biological Products, China). The corresponding results of the Exendin 4 polypeptide fragments having the sequences of SEQ ID NO. 1, SEQ ID NO. 2, SEQ ID NO. 3, SEQ ID NO. 4, SEQ ID NO. 5, SEQ ID NO. 6, SEQ ID NO. 7, SEQ ID NO. 8, SEQ ID NO. 9, SEQ ID NO. 10, SEQ ID NO. 11 and SEQ ID NO. 12 are shown in FIG. 7, FIG. 2, FIG. 12, FIG. 17, FIG. 22, FIG. 27, FIG. 32, FIG. 37, FIG. 42, FIG. 47, FIG. 52 and FIG. 57 respectively. The db/db II diabetic mice (purchased from Shanghai Laboratory Animal Center, Chinese Academy of Sciences and Yangzhou University, China) with 50 g body weight are subjected to fasting for 2 hours, the test animals were administrated by subcutaneous injection of Exendin 4 polypeptide fragment in a dose of 2 μg. 20 μl blood samples were obtained from fasted animals at 0, 0.5, 1 and 2 hours time points respectively after administration of the test substance. The sustained hypoglycemic activity is analyzed by using the blood sugar assay kit (purchased from Shanghai Institute of Biological Products, China). The corresponding results of the Exendin 4 polypeptide fragments having the sequences of SEQ ID NO. 1, SEQ ID NO. 2, SEQ ID NO. 3, SEQ ID NO. 4, SEQ ID NO. 5, SEQ ID NO. 6, SEQ ID NO. 7, SEQ ID NO. 8, SEQ ID NO. 9, SEQ ID NO. 10, SEQ ID NO. 11 and SEQ ID NO. 12 are shown in FIG. 8, FIG. 3, FIG. 13, FIG. 18, FIG. 23, FIG. 28, FIG. 33, FIG. 38, FIG. 43, FIG. 48, FIG. 53, FIG. 58 respectively. Five-month-old (body weight 470 g) Goto Kokizaki diabetic rat (purchased from Shanghai Laboratory Animal Center, Chinese Academy of Sciences, China) are taken for the operative procedure. After subjecting to fasting for 2 hours, the test animals were administrated by intraperitoneal injection of 20% glucose in a dose of 1 ml and by subcutaneous injection of Exendin 4 polypeptide fragment in a dose of 5 μg. The control group received only glucose. Twenty microliter blood samples were obtained from fasted animals at 0, 0.5, 1 and 2 hours time points respectively after administration of the test substance. The sustained hypoglycemic activity is determined by using the blood sugar assay kit (purchased from Shanghai Institute of Biological Products, China). The curve 1 indicates the control group. The curve 2 indicates the administration group. Eight-week-old (20 g body weight) mice are taken for the operative procedure. Experimental diabetes in mice was induced by (16 mg/ml) 0.1 ml alloxan by tail vein injection. Animals are divided into five groups. 48 hours later, 2 μg Exendin 4 polypeptide fragment was injected. […]

Goto Kokizaki II rats = experiment: insulin secretion stimulation in Goto Kokizaki II rats (ELISA); type: in vivo, rat; details: 5 μg subcutaneous, 0-45 minutes
Method: Six-month-old (470 g body weight) Goto Kokizaki II rats were taken for the operative procedure. The test animals were administrated by subcutaneous injection of Exendin 4 polypeptides in a dose of 5 μg, while the animals of control group only achieved physiological saline solution. 20 μl of blood samples were obtained from fasted animals at 0, 3, 5, 10, 15, 30 and 45 minutes time points respectively after administration of the test substance.

Substance	hypoglycemic activity (in words) (diabetic animal models)	insulin secretion of the test group (Goto Kokizaki II rats)
SEQ ID NO. 62: solid phase Exendin 4 polypeptide variant of example 8; sequence not printed in the text (HGEGTYTSNLSKQMEEEAVKLFIEWLKNGGP; Exendin 4 polypeptide fragment)	significant hypoglycemic activity	recovered
SEQ ID NO. 64: solid phase Exendin 4 polypeptide variant of example 8; sequence not printed in the text (HGEGTYTSNLSKQMEEEAVKLFIEWLKNGP; Exendin 4 polypeptide fragment)	significant hypoglycemic activity	recovered
SEQ ID NO. 65: solid phase Exendin 4 polypeptide variant of example 8; sequence not printed in the text (HGEGTFTSNLSKQIEEEAVKLFIEWLKNGGP; Exendin 4 polypeptide fragment)	significant hypoglycemic activity	recovered
SEQ ID NO. 66: solid phase Exendin 4 polypeptide variant of example 8; sequence not printed in the text (HGEGTYTSNLSKQIEEEAVKLFIEWLKNGGP; Exendin 4 polypeptide fragment)	significant hypoglycemic activity	recovered
SEQ ID NO. 67: solid phase Exendin 4 polypeptide variant of example 8; sequence not printed in the text (HGEGTFTSNLSKQIEEEAVKLFIEWLKNGP; Exendin 4 polypeptide fragment)	significant hypoglycemic activity	recovered
SEQ ID NO. 68: solid phase Exendin 4 polypeptide variant of example 8; sequence not printed in the text (HGEGTYTSNLSKQIEEEAVKLFIEWLKNGP; Exendin 4 polypeptide fragment)	significant hypoglycemic activity	recovered
SEQ ID NO. 69: solid phase Exendin 4 polypeptide variant of example 8; sequence not printed in the text (HGEGTFTSNLSKQLEEEAVKLFIEWLKNGGP; Exendin 4 polypeptide fragment)	significant hypoglycemic activity	recovered
SEQ ID NO. 70: solid phase Exendin 4 polypeptide variant of example 8; sequence not printed in the text (HGEGTYTSNLSKQLEEEAVKLFIEWLKNGGP; Exendin 4 polypeptide fragment)	significant hypoglycemic activity	recovered
SEQ ID NO. 71: solid phase Exendin 4 polypeptide variant of example 8; sequence not printed in the text (HGEGTFTSNLSKQLEEEAVKLFIEWLKNGP; Exendin 4 polypeptide fragment)	significant hypoglycemic activity	recovered
SEQ ID NO. 72: solid phase Exendin 4 polypeptide variant of example 8; sequence not printed in the text (HGEGTYTSNLSKQLEEEAVKLFIEWLKNGP; Exendin 4 polypeptide fragment)	significant hypoglycemic activity	recovered
